Data taken from PMC12692722, “The Tetrapeptide HAEE Promotes Amyloid-Beta Clearance from the Brain” (International Journal of Molecular Sciences, 2025).
Residues, ends and D or L forms follow the SMILES beside them.

Columns and labels:
HMC3 cells [1] = experiment: Aβ degradation assay in HMC3 cells with exocytosis inhibitor GW4869; format: cell-based, human; conditions: Aβ 1 µM 1 h, wash, then 3 h with 10 µM GW4869 ± 30 µM HAEE, ELISA, n = 3
Method: HMC3 cells were treated with 1 µM Aβ in serum-free culture medium for 1 h to allow for peptide internalization. Cells were then washed to remove extracellular Aβ. […] Aβ released into the cell culture medium during the degradation phase was also quantified by ELISA.

[2] = tested on: nicotinic α4β2 acetylcholine receptors; design: method as in PMID 34207317; conditions: cited from earlier work
Aβ oligomers [3] = target: T1, Aβ oligomers (Homo sapiens, UniProt P05067); experiment: Oligomer-specific ELISA of Aβ; format: biochemical; conditions: pre-formed Aβ oligomers in the presence vs absence of HAEE; BAM7cc capture and detection
T1 construct: purchased Peptide Specialty Laboratories GmbH; host or cells: synthetic peptide
T1 sequence (P05067 672-713): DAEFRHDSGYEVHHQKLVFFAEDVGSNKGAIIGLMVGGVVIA
Method: To measure Aβ oligomers using ELISA, two antibodies (a capture antibody and a detector antibody) targeting the same epitope are used. This method therefore allows for the detection of predominantly oligomeric forms of Aβ, which have epitopes available for binding to both the detection antibody and the capture antibody.
BAM7cc antibodies (HyTest, Moscow, Russia), which recognize the N-terminus of Aβ, were added to a 96-well ELISA plate (Wuxi NEST Biotechnology, Wuxi, China) in a volume of 100 μL (0.5 ng/μL) and incubated overnight at +4 °C. The wells of the plate were washed 3 times with 300 μL of PBST (0.05% Tween20) and blocked in 1% BSA (Diaem, Moscow, Russia) in PBST at room temperature and shaken for 1 h. The plate was then washed three times with 300 μL of PBST, and samples were added at a volume of 100 μL per well. The plates were incubated for 2 h at room temperature with shaking, washed 3 times with 300 μL of PBST, and HRP-conjugated BAM7cc antibodies (HyTest, Moscow, Russia) were added at a volume of 100 μL per well (1 ng/μL). The plates were incubated for 1 hour at room temperature with shaking, washed 5 times with 300 μL of PBST, and analyzed using TMB (Diaem, Moscow, Russia). Absorbance was measured at 450 nm using a Multiskan FC Microplate Photometer (Thermo Fisher Scientific, Waltham, MA, USA).

[4] = cited from earlier work
Excerpt: ApoE4 is the primary genetic risk factor for the sporadic form of AD. Unlike other ApoE isoforms, ApoE4 impairs TREM2-dependent microglial phagocytosis, promotes microglial activation, and contributes to chronic neuroinflammation in AD [41, 42].

TNFα = TNFα level in mouse brain tissue after i.c.v. oligomeric Aβ and HAEE (ELISA); format: in vivo; conditions: C57BL/6 mice; i.c.v. oligomeric Aβ day 1; HAEE 100 µM 1 μL i.c.v. days 1-3; ELISA of brain homogenate; n = 8
Method: (§1) After a recovery period, mice were randomly divided into two experimental groups using online GraphPad random number generator (Figure 1A, n = 8 per group): 1. The Aβ group received oligomeric Aβ and vehicle solution (ACSF). 2. The Aβ + HAEE group received oligomeric Aβ and the synthetic tetrapeptide HAEE (100 µM). The group allocation was unknown to the researchers who performed the neurosurgical procedures and ELISA.
(§2) On day 1, all mice received an intracerebroventricular (i.c.v.) injection of oligomeric Aβ (1 μL). Immediately after, mice received the first i.c.v. injection of either HAEE (1 μL) or ACSF (1 μL). Injections were repeated on days 2 and 3 (HAEE or ACSF only). All injections were performed on awake, freely moving mice through the guide cannula at a rate of 1 μL/min. […]
(§3) Aβ levels in the brain and cell lysates were measured by sandwich ELISA using BAM113cc capture antibodies (50 ng/well, HyTest, Moscow, Russia) and peroxidase-labeled BAM7cc antibodies (100 ng/well, HyTest, Moscow, Russia) as described in [46]. Aβ level was normalized to the protein concentration in the samples, measured using a Pierce™ BCA Protein Assay Kit (Thermo Fisher Scientific, Waltham, MA, USA). The rate of Aβ degradation was calculated as the difference in normalized Aβ level in the cells between the 48-hour and 24-hour time points divided by 24 h. […]

[5] = tested on: mixed primary culture of mouse brain cells; experiment: Aβ uptake and clearance in mixed primary culture of brain cells (ELISA); format: cell-based, C57BL/6 mouse; conditions: Aβ 1 µM, HAEE 30 µM, n = 4
bEnd.3 cells = experiment: BBB transwell model: Aβ passage through bEnd.3 monolayer; format: cell-based, mouse; conditions: transwell 0.4 μm, Aβ 100 nM, HAEE 20 μM in abluminal compartment, serum-free DMEM, 37 °C, 24 h, ELISA, n = 5
Method: For the experiments, mouse bEnd.3 cells were seeded onto the upper surface of transwell inserts (Greiner Bio-One, Kremsmünster, Austria; pore size 0.4 μm) at a density of 70,000 cells per insert and cultured for 7 days to form a confluent monolayer. The volume of medium in the luminal (upper) compartment was 750 μL and in the abluminal (lower) compartment was 1 mL.
The luminal (upper) compartment contained 700 μL of serum-free DMEM. The plates were incubated at 37 °C and 5% CO2. Samples were collected from the luminal compartment at 24 h. […] To control model BBB integrity, paracellular permeability of the bEnd.3 monolayer was assessed using the fluorescent label sodium fluorescein (Sigma-Aldrich, St. Louis, MO, USA) in each experiment as described in [46].

Aβ = target: T2, Aβ (Homo sapiens, UniProt P05067); experiment: Aβ level in mouse brain tissue after i.c.v. oligomeric Aβ and HAEE (ELISA); format: in vivo; conditions: C57BL/6 mice, HAEE 100 µM 1 μL i.c.v. days 1-3, n = 8
T2 construct: purchased Peptide Specialty Laboratories GmbH; host or cells: synthetic peptide
T2 sequence (P05067 672-713): as above
Method: as §1, §2, §3

IL-6 = IL-6 level in mouse brain tissue after i.c.v. oligomeric Aβ and HAEE (ELISA); format: in vivo; conditions: C57BL/6 mice; i.c.v. oligomeric Aβ day 1; HAEE 100 µM 1 μL i.c.v. days 1-3; ELISA of brain homogenate; vs Aβ + ACSF; n = 8
Method: IL-6 and TNFα in all samples were assessed using commercial ELISA kits (IL-6 Mouse Uncoated ELISA Kit, Mouse TNF alpha Uncoated ELISA Kit, Thermo Fisher Scientific, Waltham, MA, USA) according to the manufacturer’s instructions.

HMC3 cells [6] = experiment: IL-6 level in HMC3 supernatant (ELISA); format: cell-based, human; conditions: Aβ 1 µM + HAEE 30 µM, 24 h, n = 3
Excerpt: Subsequently, cells were frozen in liquid nitrogen.

[7] = tested on: primary astrocyte culture; experiment: Aβ uptake and clearance in primary astrocyte culture (ELISA); format: cell-based, C57BL/6 mouse; conditions: Aβ 1 µM, HAEE 30 µM, n = 4
HMC3 microglial cells = experiment: Aβ uptake and clearance in HMC3 microglial cells (ELISA); format: cell-based, human; conditions: Aβ 1 µM, HAEE 30 µM, n = 6
[8] = tested on: zinc-induced Aβ oligomers; design: method as in PMID 32872553, PMID 21081056; conditions: binds to Aβ at the 11EVHH14 site; cited from earlier work
Aβ oligomers [9] = target: T1, Aβ oligomers; experiment: Dynamic light scattering of Aβ oligomers; format: physicochemical; conditions: Aβ 50 µM in PBS, 24 h 37 °C, then HAEE 500 µM for additional 24 h 37 °C; measured at 25 °C; triplicate
Method: The size distribution of Aβ oligomers was characterized by DLS using a Zetasizer Nano ZS instrument (Malvern Panalytical, Malvern, UK). Oligomeric Aβ was prepared as described in Section 4.6 and further incubated at a concentration of 50 µM in PBS for 24 h at 37 °C to promote oligomerization. To assess the effect of HAEE, the peptide was added to the pre-formed Aβ oligomers at a final concentration of 500 µM (dissolved in PBS), and the mixture was incubated for an additional 24 h at 37 °C. A control sample containing Aβ without HAEE was processed in parallel under identical conditions. Immediately prior to analysis, samples were briefly centrifuged to sediment any large aggregates and transferred to a disposable polystyrene cuvette (Sarstedt, Nümbrecht, Germany). Measurements were performed at 25 °C, and the hydrodynamic diameter (reported as Z-average) and polydispersity index (PDI) were derived from the correlation function using the Zetasizer Software version 7.13 (Malvern Panalytical, Malvern, UK). Each sample was measured in triplicate.

LRP1 = target: T3, LRP1 (Mus musculus, UniProt Q91ZX7); experiment: Inhibitory assay: blocking antibody to LRP1, Aβ level in bEnd.3 cells; format: cell-based; conditions: blocking antibody 10 μg/mL 1 h, Aβ 100 nM + HAEE 20 μM, 2 h, ELISA, n = 3–4
T3 construct: endogenous in cells; host or cells: bEnd.3
T3 sequence (Q91ZX7 20-4545): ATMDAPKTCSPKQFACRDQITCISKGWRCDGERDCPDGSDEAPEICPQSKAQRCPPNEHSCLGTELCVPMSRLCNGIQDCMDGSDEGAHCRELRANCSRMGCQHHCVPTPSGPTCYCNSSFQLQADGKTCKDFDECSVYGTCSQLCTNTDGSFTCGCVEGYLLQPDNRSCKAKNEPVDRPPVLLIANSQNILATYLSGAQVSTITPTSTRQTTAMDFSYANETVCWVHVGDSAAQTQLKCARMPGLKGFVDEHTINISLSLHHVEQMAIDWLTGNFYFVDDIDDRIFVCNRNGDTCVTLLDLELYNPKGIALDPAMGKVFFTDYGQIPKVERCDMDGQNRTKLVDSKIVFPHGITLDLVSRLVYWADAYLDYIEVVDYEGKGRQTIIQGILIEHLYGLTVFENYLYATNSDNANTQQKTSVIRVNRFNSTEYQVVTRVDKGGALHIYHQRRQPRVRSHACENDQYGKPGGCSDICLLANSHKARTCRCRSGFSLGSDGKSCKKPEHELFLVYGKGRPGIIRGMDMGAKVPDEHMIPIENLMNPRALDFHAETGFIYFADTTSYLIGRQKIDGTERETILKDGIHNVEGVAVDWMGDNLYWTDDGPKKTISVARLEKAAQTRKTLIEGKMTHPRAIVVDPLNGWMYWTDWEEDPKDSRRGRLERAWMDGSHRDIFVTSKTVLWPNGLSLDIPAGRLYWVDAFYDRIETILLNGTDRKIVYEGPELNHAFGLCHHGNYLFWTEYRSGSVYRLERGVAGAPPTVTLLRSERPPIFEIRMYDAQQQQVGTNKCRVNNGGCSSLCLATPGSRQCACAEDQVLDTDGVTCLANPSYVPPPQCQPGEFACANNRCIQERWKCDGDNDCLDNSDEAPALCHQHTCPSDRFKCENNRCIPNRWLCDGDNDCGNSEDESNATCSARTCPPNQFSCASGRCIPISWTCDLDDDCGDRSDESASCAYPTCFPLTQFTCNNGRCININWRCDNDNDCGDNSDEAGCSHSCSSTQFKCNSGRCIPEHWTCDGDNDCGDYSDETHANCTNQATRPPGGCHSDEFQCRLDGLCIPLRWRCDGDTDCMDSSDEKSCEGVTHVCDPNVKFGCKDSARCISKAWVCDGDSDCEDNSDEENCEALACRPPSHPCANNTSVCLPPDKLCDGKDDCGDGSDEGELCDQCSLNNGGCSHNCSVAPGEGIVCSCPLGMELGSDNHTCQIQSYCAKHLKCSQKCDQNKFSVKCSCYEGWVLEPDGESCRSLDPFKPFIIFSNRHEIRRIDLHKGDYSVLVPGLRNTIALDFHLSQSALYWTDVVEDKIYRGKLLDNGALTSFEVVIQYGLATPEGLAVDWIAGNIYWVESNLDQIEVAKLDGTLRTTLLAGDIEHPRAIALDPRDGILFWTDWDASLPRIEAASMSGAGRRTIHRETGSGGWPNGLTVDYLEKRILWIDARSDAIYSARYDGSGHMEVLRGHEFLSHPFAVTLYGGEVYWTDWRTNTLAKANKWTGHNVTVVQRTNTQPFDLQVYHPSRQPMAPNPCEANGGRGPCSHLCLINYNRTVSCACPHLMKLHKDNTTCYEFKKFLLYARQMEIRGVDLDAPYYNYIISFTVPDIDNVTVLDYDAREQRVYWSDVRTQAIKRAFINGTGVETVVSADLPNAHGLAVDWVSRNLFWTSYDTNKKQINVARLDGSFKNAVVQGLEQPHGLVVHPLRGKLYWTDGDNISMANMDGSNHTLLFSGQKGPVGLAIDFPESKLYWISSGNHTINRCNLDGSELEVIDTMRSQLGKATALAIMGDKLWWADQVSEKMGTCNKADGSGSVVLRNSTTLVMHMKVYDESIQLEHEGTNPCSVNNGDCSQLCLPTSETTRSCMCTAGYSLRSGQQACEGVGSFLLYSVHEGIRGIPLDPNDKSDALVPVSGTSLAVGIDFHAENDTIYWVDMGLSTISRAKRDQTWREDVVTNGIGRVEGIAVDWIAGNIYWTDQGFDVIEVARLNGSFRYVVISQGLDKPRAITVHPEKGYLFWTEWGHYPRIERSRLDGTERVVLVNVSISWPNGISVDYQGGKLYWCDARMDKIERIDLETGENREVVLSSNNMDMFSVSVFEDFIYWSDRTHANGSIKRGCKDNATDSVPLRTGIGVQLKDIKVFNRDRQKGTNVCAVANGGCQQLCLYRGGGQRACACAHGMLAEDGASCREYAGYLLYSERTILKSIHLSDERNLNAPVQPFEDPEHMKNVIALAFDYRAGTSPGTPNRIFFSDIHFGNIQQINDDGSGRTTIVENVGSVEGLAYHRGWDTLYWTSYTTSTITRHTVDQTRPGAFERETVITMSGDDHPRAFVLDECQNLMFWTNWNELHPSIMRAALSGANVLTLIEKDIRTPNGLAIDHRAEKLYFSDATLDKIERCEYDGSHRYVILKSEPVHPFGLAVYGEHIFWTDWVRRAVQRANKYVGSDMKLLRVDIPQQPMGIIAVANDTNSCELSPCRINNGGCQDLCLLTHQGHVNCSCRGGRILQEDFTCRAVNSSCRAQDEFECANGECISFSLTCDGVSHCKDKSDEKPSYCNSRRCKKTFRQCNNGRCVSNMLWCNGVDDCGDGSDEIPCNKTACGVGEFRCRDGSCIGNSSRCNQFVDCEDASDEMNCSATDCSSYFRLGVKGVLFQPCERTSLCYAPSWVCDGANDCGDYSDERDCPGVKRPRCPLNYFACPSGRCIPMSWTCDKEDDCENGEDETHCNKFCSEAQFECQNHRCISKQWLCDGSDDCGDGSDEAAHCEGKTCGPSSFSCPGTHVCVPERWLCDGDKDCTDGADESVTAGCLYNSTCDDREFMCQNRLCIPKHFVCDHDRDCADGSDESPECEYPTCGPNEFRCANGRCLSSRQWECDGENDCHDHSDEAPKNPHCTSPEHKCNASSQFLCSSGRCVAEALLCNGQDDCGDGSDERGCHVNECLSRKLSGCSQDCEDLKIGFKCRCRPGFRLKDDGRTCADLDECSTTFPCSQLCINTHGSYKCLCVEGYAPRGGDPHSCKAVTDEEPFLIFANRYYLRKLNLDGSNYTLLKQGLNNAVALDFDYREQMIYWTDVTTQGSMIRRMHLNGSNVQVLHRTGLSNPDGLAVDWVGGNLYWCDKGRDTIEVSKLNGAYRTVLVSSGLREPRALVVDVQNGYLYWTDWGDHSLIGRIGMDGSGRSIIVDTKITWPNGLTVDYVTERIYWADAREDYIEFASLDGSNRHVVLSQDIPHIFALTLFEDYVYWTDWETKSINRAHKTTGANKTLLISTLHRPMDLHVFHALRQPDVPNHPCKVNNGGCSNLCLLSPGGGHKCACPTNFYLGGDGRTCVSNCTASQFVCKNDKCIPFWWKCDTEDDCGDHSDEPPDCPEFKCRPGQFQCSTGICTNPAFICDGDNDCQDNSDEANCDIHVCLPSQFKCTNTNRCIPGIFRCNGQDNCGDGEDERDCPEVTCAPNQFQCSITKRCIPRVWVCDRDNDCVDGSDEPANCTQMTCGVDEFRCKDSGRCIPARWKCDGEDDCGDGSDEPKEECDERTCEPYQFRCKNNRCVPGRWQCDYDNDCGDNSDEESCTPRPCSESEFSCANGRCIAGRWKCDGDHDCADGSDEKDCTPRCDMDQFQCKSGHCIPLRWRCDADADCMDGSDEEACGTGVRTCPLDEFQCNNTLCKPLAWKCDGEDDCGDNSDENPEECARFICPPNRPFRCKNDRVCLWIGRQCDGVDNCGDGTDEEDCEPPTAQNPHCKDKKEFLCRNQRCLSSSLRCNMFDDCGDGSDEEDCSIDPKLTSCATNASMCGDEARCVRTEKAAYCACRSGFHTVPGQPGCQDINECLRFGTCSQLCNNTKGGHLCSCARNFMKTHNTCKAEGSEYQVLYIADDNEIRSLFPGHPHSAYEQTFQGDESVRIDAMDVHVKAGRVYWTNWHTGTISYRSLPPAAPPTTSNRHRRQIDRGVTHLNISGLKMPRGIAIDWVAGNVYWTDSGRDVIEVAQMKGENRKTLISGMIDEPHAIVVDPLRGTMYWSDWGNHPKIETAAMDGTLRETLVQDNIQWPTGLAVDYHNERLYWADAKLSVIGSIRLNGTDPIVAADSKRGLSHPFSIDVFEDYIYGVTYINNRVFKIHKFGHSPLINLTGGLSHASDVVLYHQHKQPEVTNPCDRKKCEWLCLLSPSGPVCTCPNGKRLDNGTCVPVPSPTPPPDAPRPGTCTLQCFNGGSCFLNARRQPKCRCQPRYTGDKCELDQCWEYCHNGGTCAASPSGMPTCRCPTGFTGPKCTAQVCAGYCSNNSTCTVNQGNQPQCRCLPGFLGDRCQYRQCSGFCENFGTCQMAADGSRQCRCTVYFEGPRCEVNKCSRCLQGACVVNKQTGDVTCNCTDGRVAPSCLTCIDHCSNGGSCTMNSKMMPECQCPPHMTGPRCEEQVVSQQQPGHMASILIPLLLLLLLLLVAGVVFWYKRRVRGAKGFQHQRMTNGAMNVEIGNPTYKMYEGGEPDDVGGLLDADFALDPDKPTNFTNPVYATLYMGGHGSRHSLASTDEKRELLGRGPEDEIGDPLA
Method: Cells were incubated with blocking antibodies to LRP or Pgp receptors (10 μg/mL, Santa Cruz Biotechnology, Dallas, TX, USA) for 1 h at +37 °C. […] After 2 h, the cells were washed 3 times with PBS, frozen in liquid nitrogen, and lysed in IP lysis buffer (ServiceBio, Wuhan, China) with the addition of a protease inhibitor (Thermo Fisher Scientific, Waltham, MA, USA) for 1 h at +4 °C with stirring. The cell lysate was centrifuged at 16,000× g, +4 °C, 10 min and the supernatant was collected. The amount of total protein in the lysates was determined using a BCA assay kit (Sigma-Aldrich, St. Louis, MO, USA) according to the manufacturer’s protocol.

HMC3 cells [10] = experiment: Intracellular ROS and GSH in HMC3 cells by flow cytometry; format: cell-based, human; conditions: Aβ + HAEE, 24 h
Method: The cells were stained with dihydrorhodamine 123 (Ex/Em = 507/525 nm) or monobromobimane (Ex/Em = 395/495 nm) according to ThermoFisher Scientific’s instructions. One minute prior to analysis, 10 μg/mL of propidium iodide (Ex/Em = 535/617 nm, Sigma, St. Louis, MO, USA) was added to the cell samples to evaluate the number of dead cells in the population. The analysis was performed using a BD LSR Fortessa flow cytometer (Becton Dickinson, Franklin Lakes, NJ, USA) and FlowJo^TM Software v.10.8.1 (Becton Dickinson, Franklin Lakes, NJ, USA).

HMC3 cells [11] = experiment: Lysosomal staining of HMC3 cells with LysoTracker Red DND-99; format: cell-based, human; conditions: Aβ 1 μM + HAEE 30 μM, 24 h, 10 cells per field, n = 3
Method: Two hours prior to the completion of the incubation period, LysoTracker Red DND-99 (Thermo Fisher Scientific, Waltham, MA, USA) was added to the culture medium at a final concentration of 50 nM to label acidic compartments, including active lysosomes. Immediately before live-cell imaging, cell nuclei were counterstained with NucBlue Live Cell Stain (Thermo Fisher Scientific, Waltham, MA, USA) according to the manufacturer’s instructions. Fluorescent images were acquired using a Nikon Eclipse Ni-U (Nikon Corp., Tokyo, Japan) microscope with appropriate filter sets.

O=C(/C=C/c1ccc(/C=C/C(=O)Nc2ccc(C3=NCCN3)cc2)cc1)Nc1ccc(C2=NCCN2)cc1 [GW4869, reference compound]
effect of GW4869 on HAEE-dependent Aβ clearance in microglial cells (HMC3 cells [1]): did not prevent the effect of HAEE

CC(=O)N[C@@H](Cc1c[nH]cn1)C(=O)N[C@@H](C)C(=O)N[C@@H](CCC(=O)O)C(=O)N[C@@H](CCC(=O)O)C(N)=O [HAEE, Acetyl-HAEE-Amide] (Ac-HAEE-NH2)
effect on the inhibitory effect of Aβ42 on nicotinic α4β2 acetylcholine receptors [2]: completely abolishes | amount of Aβ oligomers (oligomer-specific ELISA) (Aβ oligomers [3]): reduced the amount of Aβ oligomers | toxicity [4]: non-toxic | reduction of intracellular Aβ level, HAEE + GW4869 compared to GW4869 alone (HMC3 cells [1]): 40% | effect on TNFα levels in mouse brain tissue (TNFα): no effect | effect on Aβ clearance by the cells at 24–48 h ([5]; clearance rate = difference of Aβ level 48 h vs 24 h divided by 24 h): notably accelerated | effect on intracellular Aβ level at 4–24 h ([5]; medium without FBS, ELISA): did not significantly affect | rate of Aβ passage across the BBB from abluminal to luminal compartment (bEnd.3 cells): significantly increased | reduction of Aβ level in mouse brain tissue (Aβ; 8-month-old, i.c.v. oligomeric Aβ 1 μL day 1, brain lysate ELISA 30 min after final injection, vs Aβ + ACSF): 35% | Aβ level in the brain of mice treated with HAEE compared to animals that did not receive the tetrapeptide (Aβ; i.c.v. oligomeric Aβ day 1, ELISA): reliably reduced | decrease in IL-6 levels in mouse brain tissue (IL-6): 40% | effect on Aβ-induced increase in IL-6 level (HMC3 cells [6]): effectively inhibited | effect on the rate of Aβ clearance ([7]; 24–48 h period): did not affect | level of intracellular Aβ after 24–48 h of incubation compared to cells treated with Aβ alone ([7]; ELISA): decreased | rate of Aβ clearance (HMC3 microglial cells; 24–48 h period): doubled | amount of intracellular Aβ after 24 h and 48 h of incubation compared to cells not treated with HAEE (HMC3 microglial cells; ELISA): significantly reduced | formation of toxic, zinc-induced Aβ oligomers [8]: blocks | average size of Aβ oligomers (DLS) (Aβ oligomers [9]): reduced their average size | reduction of Aβ uptake by endothelial cells on blocking LRP1, in the presence of HAEE (LRP1): 30% | effect on Aβ-induced change in reactive oxygen species (ROS) level (HMC3 cells [10]; dihydrorhodamine 123, n = 4): completely prevented | effect on Aβ-induced change in reduced glutathione (GSH) level (HMC3 cells [10]; monobromobimane, n = 4): completely prevented | effect on Aβ-induced changes in lysosomes (size and number) (HMC3 cells [11]): completely abolished
